Reference: patent publication US20150274719A1, “AMINO-SUBSTITUTED IMIDAZO[1,2-A]PYRIDINECARBOXAMIDES AND THEIR USE” (BAYER PHARMA AKTIENGESELLSCHAFT, priority 2012, published 2015)
Counter-ions that a name gives are not always drawn.

The compounds below were run against T1, recombinant guanylate cyclase reporter cell line (Rattus norvegicus, UniProt P19686+P20595) (assay: Action on recombinant guanylate cyclase reporter cell line). Settings: in some cases mean values from individual determinations.
T1 construct: expressed in transfected cells; host or cells: recombinant reporter cell line
T1 sequence (P19686 1-690): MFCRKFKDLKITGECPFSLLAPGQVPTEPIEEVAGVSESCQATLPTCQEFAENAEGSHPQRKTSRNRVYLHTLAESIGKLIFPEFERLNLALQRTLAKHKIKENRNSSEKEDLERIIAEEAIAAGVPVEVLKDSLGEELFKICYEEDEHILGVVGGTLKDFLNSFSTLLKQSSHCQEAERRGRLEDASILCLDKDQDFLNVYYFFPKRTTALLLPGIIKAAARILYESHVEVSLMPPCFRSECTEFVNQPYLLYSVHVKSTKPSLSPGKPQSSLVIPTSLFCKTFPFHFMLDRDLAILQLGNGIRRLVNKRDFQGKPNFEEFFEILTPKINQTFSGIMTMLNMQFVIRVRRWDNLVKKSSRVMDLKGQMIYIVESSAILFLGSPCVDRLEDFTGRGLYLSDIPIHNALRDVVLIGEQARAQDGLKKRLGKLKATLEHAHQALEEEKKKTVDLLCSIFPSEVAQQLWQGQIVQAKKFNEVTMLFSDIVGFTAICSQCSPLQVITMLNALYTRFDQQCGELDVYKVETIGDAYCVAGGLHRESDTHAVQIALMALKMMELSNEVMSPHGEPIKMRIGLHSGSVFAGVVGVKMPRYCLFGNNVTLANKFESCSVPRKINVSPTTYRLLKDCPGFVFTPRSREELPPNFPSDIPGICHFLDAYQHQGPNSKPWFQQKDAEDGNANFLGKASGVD
T1 sequence (P20595 1-619): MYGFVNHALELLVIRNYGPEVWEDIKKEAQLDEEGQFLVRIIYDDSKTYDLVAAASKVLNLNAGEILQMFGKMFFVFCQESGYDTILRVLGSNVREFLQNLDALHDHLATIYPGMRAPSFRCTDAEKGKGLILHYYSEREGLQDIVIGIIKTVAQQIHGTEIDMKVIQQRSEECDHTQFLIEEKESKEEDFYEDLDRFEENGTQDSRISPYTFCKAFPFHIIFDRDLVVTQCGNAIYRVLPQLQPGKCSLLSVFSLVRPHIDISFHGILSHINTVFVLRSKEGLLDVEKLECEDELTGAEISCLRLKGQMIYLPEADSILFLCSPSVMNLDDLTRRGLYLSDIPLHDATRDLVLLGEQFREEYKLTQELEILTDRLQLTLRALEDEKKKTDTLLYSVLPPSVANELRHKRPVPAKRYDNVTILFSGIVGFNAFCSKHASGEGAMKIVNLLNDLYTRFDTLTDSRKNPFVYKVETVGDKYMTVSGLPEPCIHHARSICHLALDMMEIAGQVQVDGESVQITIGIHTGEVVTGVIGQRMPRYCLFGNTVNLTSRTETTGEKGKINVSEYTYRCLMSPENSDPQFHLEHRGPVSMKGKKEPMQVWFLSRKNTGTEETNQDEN
Assay type: cell-based
Method in brief: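 Cellular activity was measured in a reporter cell line expressing recombinant guanylate cyclase. Values are given as MEC, the minimal effective concentration, and some are means of individual determinations.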

Question: `CCCC(C)(N)CNC(=O)c1c(C)nc2c(OCc3c(F)cccc3F)cc(Cl)cn12` (racemic) [Example 244, rac-N-(2-Amino-2-methylpentyl)-6-chloro-8-[(2,6-difluorobenzyl)oxy]-2-methylimidazo[1,2-a]-pyridine-3-carboxamide] was tested. Which “MEC (minimal effective concentration)” value did it give?
Answer: 0.30 µM

Question: `Cc1nc2c(OCc3c(F)cccc3F)cccn2c1C(=O)NCC(N)C(F)(F)C(F)F` (single isomer, unassigned) [Example 231, ent-N-(2-Amino-3,3,4,4-tetrafluorobutyl)-8-[(2,6-difluorobenzyl)oxy]-2-methylimidazo[1,2-a]-pyridine-3-carboxamide] was tested. Which “MEC (minimal effective concentration)” value did it give?
Answer: 0.30 µM

Question: With `COC(=O)[C@@H](N)CCCCNC(=O)c1c(C)nc2c(OCc3c(F)cccc3F)cc(C)cn12` [Example 294, Methyl N^6-({8-[(2,6-difluorobenzyl)oxy]-2,6-dimethylimidazo[1,2-a]pyridin-3-yl}carbonyl)-L-lysinate] as the compound, how does the “MEC (minimal effective concentration)” value read?
Answer: 0.065 µM

Question: How did the “MEC (minimal effective concentration)” value turn out when `Cc1nc2c(OCc3c(F)cccc3F)cccn2c1C(=O)NC1CCN(Cc2ccccc2)C1` (racemic) [Example 85, rac-N-(1-benzylpyrrolidin-3-yl)-8-[(2,6-difluoro-benzyl)oxy]-2-methylimidazo[1,2-a]-pyridine-3-carboxamide] was run?
Answer: 1.00 µM

Question: With `COCC(N)CNC(=O)c1c(C)nc2c(OCc3c(F)cccc3F)cccn12` (single isomer, unassigned; enantiomer b) [Example 248, ent-N-(2-Amino-3-methoxypropyl)-8-[(2,6-difluorobenzyl)oxy]-2-methylimidazo[1,2-a]pyridine-3-carboxamide (Enantiomer B)] as the compound, how does the “MEC (minimal effective concentration)” value read?
Answer: 1.00 µM

Question: How did the “MEC (minimal effective concentration)” value turn out when `Cc1nc2c(OCC3CCCCC3)cccn2c1C(=O)NC(CN)c1ccc(F)c(F)c1` (single isomer, unassigned) [Example 178, ent-N-[2-Amino-1-(3,4-difluorophenyl)ethyl]-8-(cyclohexylmethoxy)-2-methylimidazo[1,2-a]-pyridine-3-carboxamide] was run?
Answer: 0.30 µM

Question: How did the “MEC (minimal effective concentration)” value turn out when `Cc1cc(OCc2c(F)cccc2F)c2nc(C)c(C(=O)NCC(N)c3cccc(OCCO)c3)n2c1` (racemic) [Example 367, rac-N-{2-amino-2-[3-(2-hydroxyethoxy)phenyl]ethyl}-8-[(2,6-difluorobenzyl)oxy]-2,6-dimethylimidazo[1,2-a]pyridine-3-carboxamide] was run?
Answer: 3.00 µM

Question: With `Cc1cc(OCc2c(F)cccc2F)c2nc(C)c(C(=O)NCC(N)CC(F)(F)F)n2c1` (single isomer, unassigned) [Example 128, ent-N-(2-Amino-4,4,4-trifluorobutyl)-8-[(2,6-difluorobenzyl)oxy]-2,6-dimethylimidazo[1,2-a]-pyridine-3-carboxamide] as the compound, how does the “MEC (minimal effective concentration)” value read?
Answer: 0.10 µM

Question: For `Cc1nc2c(OCc3c(F)cccc3F)cccn2c1C(=O)NC(CN)COc1ccccc1` (racemic) [Example 59, rac-N-(1-amino-3-phenoxypropan-2-yl)-8-[(2,6-difluorobenzyl)oxy]-2-methylimidazo[1,2-a]-pyridine-3-carboxamide dihydrochloride], which “MEC (minimal effective concentration)” value is on record?
Answer: 3.00 µM

Question: How did the “MEC (minimal effective concentration)” value turn out when `Cc1nc2c(OCc3c(F)cccc3F)cccn2c1C(=O)NCCC(C)(C)N` [Example 117, N-(3-amino-3-methylbutyl)-8-[(2,6-difluorobenzyl)oxy]-2-methylimidazo[1,2-a]-pyridine-3-carboxamide] was run?
Answer: 1.00 µM

Question: Which “MEC (minimal effective concentration)” value does the source give for `Cc1cc(OCc2c(F)cccc2F)c2nc(C)c(C(=O)NC3CCC3N)n2c1` (single isomer, unassigned; enantiomer a) [Example 328, ent-N-(2-aminocyclobutyl)-8-[(2,6-difluorobenzyl)oxy]-2,6-dimethylimidazo[1,2-a]pyridine-3-carboxamide (Enantiomer A)] here?
Answer: 3.00 µM

Question: For `Cc1nc2c(OCc3c(F)cccc3F)cccn2c1C(=O)NC(CN)COC(C)C` (racemic) [Example 63, rac-N-(1-Amino-3-isopropoxypropan-2-yl)-8-[(2,6-difluorobenzyl)oxy]-2-methylimidazo[1,2-a]-pyridine-3-carboxamide], which “MEC (minimal effective concentration)” value is on record?
Answer: 0.30 µM

Question: `Cc1nc2c(OCc3c(F)cccc3F)cccn2c1C(=O)NCC(C)(N)CCOCc1ccccc1` (single isomer, unassigned; enantiomer b) [Example 267, ent-N-[2-Amino-4-(benzyloxy)-2-methylbutyl]-8-[(2,6-difluorobenzyl)oxy]-2-methylimidazo[1,2-a]pyridine-3-carboxamide (Enantiomer B)] was tested. Which “MEC (minimal effective concentration)” value did it give?
Answer: 0.10 µM

Question: `Cc1nc2c(OCc3c(F)cccc3F)cc(Cl)cn2c1C(=O)NCC(C)(N)C(F)(F)F` (single isomer, unassigned) [Example 237, ent-N-(2-Amino-3,3,3-trifluoro-2-methylpropyl)-6-chloro-8-[(2,6-difluorobenzyl)oxy]-2-methyl-imidazo[1,2-a]pyridine-3-carboxamide] was tested. Which “MEC (minimal effective concentration)” value did it give?
Answer: 0.30 µM

Question: `Cc1nc2c(OCc3c(F)cccc3F)cc(Cl)cn2c1C(=O)NC(C)(C)CN` [Example 24, N-(1-amino-2-methylpropan-2-yl)-6-chloro-8-[(2,6-difluorobenzyl)oxy]-2-methylimidazo[1,2-a]pyridine-3-carboxamide] was tested. Which “MEC (minimal effective concentration)” value did it give?
Answer: 0.65 µM

Question: How did the “MEC (minimal effective concentration)” value turn out when `COCC(N)CNC(=O)c1c(C)nc2c(OCc3c(F)cccc3F)cccn12` (single isomer, unassigned; enantiomer a) [Example 247, ent-N-(2-Amino-3-methoxypropyl)-8-[(2,6-difluorobenzyl)oxy]-2-methylimidazo[1,2-a]pyridine-3-carboxamide (Enantiomer A)] was run?
Answer: 3.00 µM

Question: Which “MEC (minimal effective concentration)” value does the source give for `Cc1cc(OCc2c(F)cccc2F)c2nc(C)c(C(=O)NC3CNCC(F)(F)C3)n2c1` (racemic) [Example 312, rac-8-[(2,6-difluorobenzyl)oxy]-N-(5,5-difluoropiperidin-3-yl)-2,6-dimethylimidazo[1,2-a]pyridine-3-carboxamide] here?
Answer: 0.30 µM

Question: For `COCC(CN)NC(=O)c1c(C)nc2c(OCc3c(F)cccc3F)cc(C)cn12` (single isomer, unassigned) [Example 210, ent-N-(1-amino-3-methoxypropan-2-yl)-8-[(2,6-difluorobenzyl)oxy]-2,6-dimethylimidazo[1,2-a]-pyridine-3-carboxamide trifluoroacetate], which “MEC (minimal effective concentration)” value is on record?
Answer: 0.30 µM

Question: How did the “MEC (minimal effective concentration)” value turn out when `Cc1cc(OCc2c(F)cccc2F)c2nc(C)c(C(=O)NC3CCCC(N)C3)n2c1` (centres unmarked) [Example 160, N-(3-aminocyclohexyl)-8-[(2,6-difluorobenzyl)oxy]-2,6-dimethylimidazo[1,2-a]-pyridine-3-carboxamide] was run?
Answer: 1.00 µM

Question: `COCC(C)(N)CNC(=O)c1c(C)nc2c(OCc3c(F)cccc3F)cc(Cl)cn12` (single isomer, unassigned) [Example 196, ent-N-(2-Amino-3-methoxy-2-methylpropyl)-6-chloro-8-[(2,6-difluorobenzyl)oxy]-2-methylimidazo[1,2-a]pyridine-3-carboxamide] was tested. Which “MEC (minimal effective concentration)” value did it give?
Answer: 1.00 µM

Question: Which “MEC (minimal effective concentration)” value does the source give for `CCC(C)(N)CNC(=O)c1c(C)nc2c(OCc3c(F)cccc3F)cc(Cl)cn12` (racemic) [Example 157, rac-N-(2-amino-2-methylbutyl)-6-chloro-8-[(2,6-difluorobenzyl)oxy]-2-methylimidazo[1,2-a]-pyridine-3-carboxamide] here?
Answer: 0.30 µM

Question: `CCCC(C)(N)CNC(=O)c1c(C)nc2c(OCc3ccccc3Cl)cc(C)cn12` (racemic) [Example 343, rac-N-(2-amino-2-methylpentyl)-8-[(2-chlorobenzyl)oxy]-2,6-dimethylimidazo[1,2-a]pyridine-3-carboxamide] was tested. Which “MEC (minimal effective concentration)” value did it give?
Answer: 1.00 µM

Question: How did the “MEC (minimal effective concentration)” value turn out when `Cc1nc2c(OCc3c(F)cccc3F)cc(Cl)cn2c1C(=O)NCCC(C)(C)N` [Example 104, N-(3-Amino-3-methylbutyl)-6-chloro-8-[(2,6-difluorobenzyl)oxy]-2-methylimidazo[1,2-a]-pyridine-3-carboxamide] was run?
Answer: 0.30 µM
